Test results as given in patent EP0446604A2, “Pyridine and related aza heterocycle derivatives as cardiovascular agents” (AMERICAN CYANAMID COMPANY, priority 1990, dated 1991).

How the values were obtained:
[1] = target: T1, thromboxane synthetase enzyme (Rattus norvegicus, UniProt P49430); assay: Inhibition of thromboxane (TXB2) formation in washed rat platelets, TXB2 radioimmunoassay; format: biochemical, Okamoto-Aoki spontaneously hypertensive rats (SHR); details: Concentration 1x10^-4M, platelet suspension incubated 10 minutes at 37 °C
T1 construct: from tissue; host or cells: washed blood platelets from Okamoto-Aoki spontaneously hypertensive rats (SHR)
T1 sequence (P49430 1-533): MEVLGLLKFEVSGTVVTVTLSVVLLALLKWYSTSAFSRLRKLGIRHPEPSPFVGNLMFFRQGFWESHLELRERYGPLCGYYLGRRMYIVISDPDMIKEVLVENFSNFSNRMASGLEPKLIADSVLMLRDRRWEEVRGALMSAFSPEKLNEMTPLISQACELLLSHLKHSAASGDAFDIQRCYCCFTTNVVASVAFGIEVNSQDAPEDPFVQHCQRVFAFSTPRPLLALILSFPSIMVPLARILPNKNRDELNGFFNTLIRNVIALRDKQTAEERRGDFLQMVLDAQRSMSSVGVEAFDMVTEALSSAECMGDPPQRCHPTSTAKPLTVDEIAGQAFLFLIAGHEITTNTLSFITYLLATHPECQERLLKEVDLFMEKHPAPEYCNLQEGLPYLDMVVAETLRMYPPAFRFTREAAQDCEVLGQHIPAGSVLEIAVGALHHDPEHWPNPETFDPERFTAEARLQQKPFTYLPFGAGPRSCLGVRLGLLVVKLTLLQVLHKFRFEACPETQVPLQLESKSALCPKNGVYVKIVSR
Method: Under urethan anesthesia, […] of arterial blood from Okamoto-Aoki spontaneously hypertensive rats (SHR) (Taconic Farms, Germantown, NY) between 19 and 24 weeks in age is collected in one ml of 3.2% sodium citrate in a polystyrene tube. The blood is diluted with 3 ml of cold saline and centrifuged at room temperature for 15 minutes at 460xg. The platelet rich plasma (PRP) is separated. The platelets are isolated by centrifuging the PRP for 10 minutes at 1060xg and are washed in 4 ml of cold oxygenated Krebs phosphate buffer, pH 7.4. The chilled platelets, recovered from centrifuging at 800xg for 10 minutes, are resuspended in oxygenated Krebs phosphate buffer and diluted to contain 4.5-6.0 x 10⁴ platelets/µ1. The inhibition of thromboxane (TX) formation is studied by determining the concentration of thromboxane B₂ (TXB₂), the stable hydrolysis product of TXA₂. Assay samples, prepared on ice, contain 200 µ1 platelet suspension, 50 µ1 saline, and 50 µ1 vehicle (saline) or drug under study. The samples are incubated for 10 minutes at 37 °C in a metabolic shaker. The reaction is terminated by immersing the tubes in an ice bath and adding 50 µl of 0.5M citric acid. The samples are centrifuged for 10 minutes in a refrigerated centrifuge and the supernatants thus obtained are decanted and stored at -20 °C. The TXB₂ content for each sample is determined by a direct radioimmunoassay (RIA) utilizing a TXB₂ specific RIA kit purchased from New England Nuclear, Boston, MA and expressed as pg TXB₂ formed per minute per sample, from which the percent inhibition of TXB₂ formation is calculated.

[2] = test system: Male mice of the Swiss Webster Strain; assay: Potassium chloride-induced arrhythmia in anesthetized mice (survival); format: in vivo; details: Mus musculus, iv, Dose = 10 mg/kg i.v.; potassium chloride 62.5 mg/kg i.v. bolus 5, 15 or 30 minutes after drug; observed 15 minutes; read-out: KCl #Mice Surviving #Mice Tested (converted)
Description: (§1) Intravenous administration of high doses of calcium or potassium chloride in animals produces cardiac arrhythmias, cardiac fibrillation and cardiac arrest. Any agent that can prevent these events is considered an antiarrhythmic/antifibrillatory agent. (Meth. and Find Exptl. Clin Pharmacol.2:223-252(1980); Pharmacol, Ther. 24:401-433 (1984); Experimental Cardiac and Antiarrhythmic Drugs, L. Szekeres and Gy. J. Dapp, Akademiai Kiado Preso, Budapest, 9-448 (1971).)
(§2) The method employed is as follows: Male mice of the Swiss Webster Strain (Charles River, Wilmington, MA) weighing 25-35 g are anesthetized with ethyl carbamate (urethan) (1.5g/kg body weight i.p.). A 25-gauge needle attached to PE-20 tubing is inserted into a caudal vein for drug administration. The lead II ECG is recorded by needle electrodes placed subcutaneously in the limbs. All data is collected on a Gould Brush recorder. Animals are observed 5 minutes before drug administration. A 5, 15, or 30 minute period following drug administration is allowed before the bolus injection of calcium chloride, 200 mg/kg i.v. or potassium chloride, 62.5 mg/kg i.v. Control mice receive 4 ml/kg of 0.9% sodium chloride i.v. Mice are observed an additional 15 minutes for arrhythmias, fibrillation, survival or death. Any compound at a dose of less than 20 mg/kg i.v. that protects 3 out of 6 mice from cardiac death in either the potassium or calcium chloride test, is considered active.

[3] = test system: Male mice of the Swiss Webster Strain; assay: Calcium chloride-induced arrhythmia in anesthetized mice (survival); format: in vivo; details: Mus musculus, iv, Dose = 10 mg/kg i.v.; calcium chloride 200 mg/kg i.v. bolus 5, 15 or 30 minutes after drug; observed 15 minutes; read-out: CaCl2 #Mice Surviving #Mice Tested (converted)
Description: as §1, §2

[4] = test system: spontaneously hypertensive rats of the Okamoto strain; assay: Hypotensive activity in spontaneously hypertensive rats (method of Chan and Poorvin); format: in vivo; details: by gavage, 100 mg/kg or less, second identical dose 24 hours later; MABP measured 28 hours after initial dose; average MABP of the rats used 160±1.5 mm of mercury
Method: The novel compounds of the present invention are active hypotensive agents and were tested for hypotensive activity by the method of P.S. Chan and D. Poorvin, Clinical and Experimental Hypertension, 1 (6), 817-830 (1979). Male, 16 week old, spontaneously hypertensive rats of the Okamoto strain, from Taconic Farms, Germantown, New York, having an average mean arterial blood pressure of 160±1.5 mm of mercury, were used in the test. One to four rats were used per test compound. A rat is dosed by gavage with a test compound suspended in 2% pre-boiled starch at a concentration of 50 mg/ml, at a dose of 100 mg/kg of body weight or less, with 0.9% sodium chloride loading at a dose of 25 ml/kg of body weight. A second identical dose of the test compound, without sodium chloride loading is given 24 hours later. At 28 hours after the initial dose the mean arterial blood pressure (MABP) is measured. The procedure is repeated in a second and third rat when necessary. The results of this test on representative compounds of the present invention appear below in Table II.

Cc1cc(NCCCn2ccnc2)nc2c(C)cccc12 [Example 32, N-[3-(1H-Imidazol-1-yl)propyl]-4,8-dimethyl-2-quinolinamine]
inhibition at 100 µM [1]: 98% | responders at 10 mg/kg [2]: 50% | responders at 10 mg/kg [3]: 0% | Avg. MABP in mm Hg (No. of Rats) [4]: 96 (2) mm Hg

CC(CNc1nc2ccccc2c2ccccc12)Cn1ccnc1 (stereo not drawn) [Example 86, N-[3-(1H-Imidazol-1-yl)-2-methylpropyl]-6-phenanthridinamine]
inhibition at 100 µM [1]: 100% | responders at 10 mg/kg [2]: 50% | responders at 10 mg/kg [3]: 16.7% | Avg. MABP in mm Hg (No. of Rats) [4]: 114 (2) mm Hg

Cc1cc(NCC(C)Cn2ccnc2)nc2ccccc12 (stereo not drawn) [Example 88, N-[3-(1H-Imidazol-1-yl)-2-methylpropyl]-4-methyl-2-quinolinamine]
inhibition at 100 µM [1]: 98% | responders at 10 mg/kg [2]: 83.3% | responders at 10 mg/kg [3]: 16.7% | Avg. MABP in mm Hg (No. of Rats) [4]: 96 (2) mm Hg
